Experimental findings from ChEMBL document CHEMBL1938325, “Synthesis of new 5,6-dihydrobenzo[h]quinazoline 2,4-diamino substituted and antiplatelet/antiphlogistic activities evaluation” (Bioorg Med Chem Lett, 2012) are described below.

Active and inactive are the calls of the source. The rule behind the calls is not given here. A value given as a limit tells only on which side of the number the result lay.

Data set [1] can be described thus: Antiplatelet activity against guinea pig platelet-rich plasma assessed as inhibition of arachidonic acid-induced platelet aggregation measured within 3 hrs by turbidimetric method. The format is functional. The following applies: Cavia porcellus.
Data set [2] is described as follows: Antiplatelet activity against guinea pig platelet-rich plasma assessed as inhibition of ADP-induced platelet aggregation measured within 3 hrs by turbidimetric method. The class given is functional. The following applies: Cavia porcellus.
Data set [3] deals with Platelet. The data set can be described thus: Antiplatelet activity against guinea pig platelet-rich plasma assessed as inhibition of U46619-induced platelet aggregation up to 500 uM measured within 3 hrs by turbidimetric method. The format is functional. As to conditions: Cavia porcellus.
In data set [4] the test system is Mus musculus. In words: Antinociceptive activity in Swiss mouse assessed as inhibition of acetic acid induced writhing at 100 mg/kg, po measured every 5 mins for 45 mins. The format is functional. Background: An intraperitoneal irritant provokes the stretching counted in writhing tests.
The test system of data set [5] is Rattus norvegicus. In words: Antiphlogistic activity in Wistar rat assessed as inhibition of carrageenan-induced paw oedema at 100 mg/kg, po. The format is functional. (In general: In the carrageenan paw model, swelling and tenderness develop within hours.)
Data set [6] deals with Rattus norvegicus. The data set can be described thus: Antiphlogistic activity in Wistar rat assessed as inhibition of carrageenan-induced paw oedema at 50 mg/kg, po. The format is functional.
Data set [7] deals with Rattus norvegicus. The data set can be described thus: Antiphlogistic activity in Wistar rat assessed as inhibition of carrageenan-induced paw oedema at 25 mg/kg, po. The format is functional.
The test system of data set [8] is Platelet. In words: Antiplatelet activity against guinea pig platelet-rich plasma assessed as inhibition of ADP-induced platelet aggregation up to 500 uM measured within 3 hrs by turbidimetric method. The format is functional. The following applies: Cavia porcellus.
Data set [9] has as its system Mus musculus. The data set can be described thus: Antinociceptive activity in Swiss mouse assessed as inhibition of acetic acid induced writhing at 50 mg/kg, po measured every 5 mins for 45 mins. The class given is functional.
The nature of data set [10]: Antiplatelet activity against guinea pig platelet-rich plasma assessed as inhibition of U46619-induced platelet aggregation measured within 3 hrs by turbidimetric method. The class given is functional. As to conditions: Cavia porcellus.
The target in data set [11] is T1, Prostaglandin G/H synthase 2 (Homo sapiens) (UniProt P35354).
T1 sequence (whole entry): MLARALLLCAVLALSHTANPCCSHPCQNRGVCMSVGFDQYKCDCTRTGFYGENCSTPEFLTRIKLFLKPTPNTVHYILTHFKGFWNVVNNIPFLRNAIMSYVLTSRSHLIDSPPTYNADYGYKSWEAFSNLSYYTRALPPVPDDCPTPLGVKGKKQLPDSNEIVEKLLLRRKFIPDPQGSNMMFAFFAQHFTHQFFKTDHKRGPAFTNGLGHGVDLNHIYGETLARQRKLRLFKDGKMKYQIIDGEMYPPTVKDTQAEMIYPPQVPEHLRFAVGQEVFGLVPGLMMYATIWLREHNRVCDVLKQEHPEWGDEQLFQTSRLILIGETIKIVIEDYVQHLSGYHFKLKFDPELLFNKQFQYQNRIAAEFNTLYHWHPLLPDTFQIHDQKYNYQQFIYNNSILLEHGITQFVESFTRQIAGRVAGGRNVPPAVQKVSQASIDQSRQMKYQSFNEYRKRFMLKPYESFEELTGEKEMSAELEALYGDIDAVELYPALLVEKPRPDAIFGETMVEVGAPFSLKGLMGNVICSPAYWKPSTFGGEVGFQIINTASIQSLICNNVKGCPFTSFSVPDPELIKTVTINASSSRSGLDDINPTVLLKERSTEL
In words: Inhibition of COX-2 at 1 mM.

In data set [12] the target is Prostaglandin G/H synthase 1 (Homo sapiens) (UniProt P23219). The data set can be described thus: Inhibition of COX-1 at 1 mM.
In data set [13] the test system is Mus musculus. In words: Toxicity in Swiss mouse assessed as effect on spontaneous locomotion activity at 25 to 100 mg/kg, po by classic open filed test. The format is organism-based. The arrangement: dose 25-100 mg/kg, route oral. As to conditions: in vivo.
Data set [14] concerns Mus musculus. In words: Antinociceptive activity in Swiss mouse assessed as inhibition of acetic acid induced writhing at 25 mg/kg, po measured every 5 mins for 45 mins. The class given is functional.
Data set [15] concerns Mus musculus. In words: Toxicity in Swiss mouse assessed as sedation at 25 to 100 mg/kg, po. The format is organism-based. The arrangement: dose 25-100 mg/kg, route oral. The following applies: in vivo.
Data set [16] concerns Rattus norvegicus. The data set can be described thus: Antiphlogistic activity in Wistar rat assessed as inhibition of carrageenan-induced paw oedema at 10 mg/kg, po. The class given is functional.

Chain of Prostaglandin G/H synthase 1 (Homo sapiens) (P23219 whole entry): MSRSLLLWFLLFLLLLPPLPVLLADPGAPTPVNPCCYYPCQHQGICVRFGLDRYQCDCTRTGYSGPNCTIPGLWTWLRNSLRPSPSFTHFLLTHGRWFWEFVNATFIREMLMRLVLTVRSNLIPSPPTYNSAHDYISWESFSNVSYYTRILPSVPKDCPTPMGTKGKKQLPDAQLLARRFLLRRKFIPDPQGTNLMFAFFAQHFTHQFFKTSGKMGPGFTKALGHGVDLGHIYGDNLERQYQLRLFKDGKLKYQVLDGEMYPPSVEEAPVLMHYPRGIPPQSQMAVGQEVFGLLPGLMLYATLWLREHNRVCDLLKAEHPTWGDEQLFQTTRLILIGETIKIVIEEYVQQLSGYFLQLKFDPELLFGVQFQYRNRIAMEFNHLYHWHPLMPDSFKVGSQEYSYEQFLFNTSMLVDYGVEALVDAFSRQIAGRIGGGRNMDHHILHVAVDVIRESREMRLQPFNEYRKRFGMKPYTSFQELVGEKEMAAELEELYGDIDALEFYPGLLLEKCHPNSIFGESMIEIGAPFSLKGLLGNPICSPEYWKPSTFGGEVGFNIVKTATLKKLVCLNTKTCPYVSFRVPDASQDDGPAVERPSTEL

For orientation: IC50 means the concentration at which inhibition is half-maximal. A word on the inhibition in vivo: it is the relative decrease from the control value, in per cent. As to `Nc1nc2c(c(N3CCCC3)n1)CCc1ccccc1-2`, the values for the IC50 in data set [1] and in data set [2] were 166 µM and 307 µM, respectively. In the data set on Platelet [3], the inhibition result is “inactive”. In addition, the inhibition in vivo at 100 mg/kg with Mus musculus [4] was determined as 30%; in the data set with Rattus norvegicus [5], 42%. Also, the inhibition in vivo at 50 mg/kg in the data set on Rattus norvegicus [6] is 42%. Moreover, the inhibition in vivo at 25 mg/kg with Rattus norvegicus [7] was determined as 0%.
For the compound `Nc1nc(NCc2ccccc2)c2c(n1)-c1ccccc1CC2`, the IC50 in data set [1] is 200 µM. Besides, the inhibition entry in the data set on Platelet [8] and with Platelet [3] was “inactive” in each case. The inhibition in vivo at 100 mg/kg with Mus musculus [4] amounted to 62%; with Rattus norvegicus [5], 23%. Further, in the data set on Mus musculus [9], the inhibition in vivo at 50 mg/kg is 8%.
With `CNc1nc(Nc2ccccc2)c2c(n1)-c1ccccc1CC2`, the IC50 in data set [1] was 105 µM. Moreover, the inhibition result with Platelet [8] and in the data set on Platelet [3] was “inactive” each time. For the same compound, the inhibition in vivo at 100 mg/kg was 54% in the data set on Mus musculus [4] and 5% with Rattus norvegicus [5]. For the same compound, the inhibition in vivo at 50 mg/kg with Mus musculus [9] was found to be 0%.
Consider `Nc1nc2c(c(N3CCOCC3)n1)CCc1ccccc1-2`, for which the figures for the IC50 in data set [1] and in [2] were 224 µM and 341 µM, respectively. In addition, the inhibition entry with Platelet [3] was “inactive”. The inhibition in vivo at 100 mg/kg was found to be 19% in the data set with Mus musculus [4] and 40% in the data set with Rattus norvegicus [5]. Besides, the inhibition in vivo at 50 mg/kg with Rattus norvegicus [6] turned out to be 0%.
For the compound `Nc1nc(Nc2ccccc2)c2c(n1)-c1ccccc1CC2`, the 50% inhibitory concentration (IC50) worked out at 89 µM in data set [1], 311 µM in [2] and 205 µM in [10]. For the same compound, the inhibition in vivo at 100 mg/kg in the data set on Mus musculus [4] stood at 15%; with Rattus norvegicus [5] it was 54%. In addition, the inhibition in vivo at 50 mg/kg in the data set with Rattus norvegicus [6] is 53%. Besides, the inhibition in vivo at 25 mg/kg with Rattus norvegicus [7] amounted to 0%. Besides, the values for the Imax in data set [11] and in [12] were 38.6% and 50.5%, respectively.
As to `CN(C)c1nc(Nc2ccccc2)c2c(n1)-c1ccccc1CC2`, the figures for the IC50 in data set [1] and in [2] were 46 µM and > 500 µM, respectively. Further, the Activity result in the data set with Mus musculus [13] and with Mus musculus [15] was “Non-toxic” in each case. The inhibition result in the data set with Platelet [3] is “inactive”. The inhibition in vivo at 100 mg/kg in the data set on Mus musculus [4] worked out at 64%; in the data set on Rattus norvegicus [5] it was 0%. The inhibition in vivo at 50 mg/kg with Mus musculus [9] amounted to 51%. Also, in the data set with Mus musculus [14], the inhibition in vivo at 25 mg/kg stood at 0%. For the same compound, the Imax worked out at 50.7% in data set [11] and 28.7% in data set [12].
`CC(=O)Oc1ccccc1C(=O)O` [ASPIRIN]: the results for the IC50 in data set [1] and in data set [2] were 45 µM and > 500 µM, respectively. In addition, the inhibition entry in the data set on Platelet [3] is “inactive”.
Turning to `COc1ccc2c(c1)c(CC(=O)O)c(C)n2C(=O)c1ccc(Cl)cc1` [INDOMETHACIN], the inhibition in vivo at 10 mg/kg with Rattus norvegicus [16] amounted to 45%.
Regarding `Nc1nc2c(c(N3CCCCC3)n1)CCc1ccccc1-2`, the IC50 in data set [1] is 68 µM; in data set [2], 336 µM; in data set [10] it was 385 µM. Besides, the values for the inhibition in vivo at 100 mg/kg in the data set with Mus musculus [4] and in the data set with Rattus norvegicus [5] were 0% and 31%, respectively. For the same compound, the inhibition in vivo at 50 mg/kg in the data set on Rattus norvegicus [6] was determined as 41%. Also, the inhibition in vivo at 25 mg/kg in the data set with Rattus norvegicus [7] is 0%.
Consider `Nc1nc(NCCc2ccccc2)c2c(n1)-c1ccccc1CC2`, for which, in data set [1], the IC50 came to 89 µM. Moreover, the inhibition result in the data set on Platelet [8] and in the data set with Platelet [3] was “inactive” throughout. Also, the inhibition in vivo at 100 mg/kg with Mus musculus [4] was 54%; with Rattus norvegicus [5], 19%. Besides, the inhibition in vivo at 50 mg/kg came out at 32% in the data set with Mus musculus [9] and 20% in the data set on Rattus norvegicus [6].
